Assay: Measurement of Log P values by HPLC on reversed phase columns (EEC directive 79/831 Annex V.A8), methods [a], [b], [c]
Assay type: physicochemical
Details: for chromatographic logP: reversed-phase HPLC column
[1] = method [a]: LC-UV, acidic range, 0.1% formic acid in water and acetonitrile as eluent (10% to 95% acetonitrile), Table 3, compounds of formula (1)
[2] = method [a]: LC-UV, acidic range, 0.1% formic acid in water and acetonitrile as eluent, Table 5, compounds of formula (2)
[3] = HPLC on reversed phase column, method [a]
[4] = method [b]: LC-UV, neutral range, 0.001 molar ammonium acetate solution in water and acetonitrile as eluent (10% to 95% acetonitrile), Table 3, compounds of formula (1)

Procedure: Measurement of Log P values as provided herein was performed according to EEC directive 79/831 Annex V.A8 by HPLC (High Performance Liquid Chromatography) on reversed phase columns with the following methods: • ^[a]

SMILES | LogP [1] | chromatographic logP [1] | other results
Cc1ccc(C(F)(F)CNC(=O)c2c(Oc3cccc(C(F)(F)F)c3)nnc(Cl)c2NC2CC2C2CC2)c(C)c1 (mixture of isomers) [I-812] |  |  | LogP (method [a]): 4.87^[a]
Cc1c(Cl)nnc(Oc2cccc(C3CC3(F)F)c2)c1C(=O)O (racemic) [Compound 1-105] | 1.69^[a] |  | 
NCC(F)c1ccc(I)cc1 (racemic) [Compound 2-05] |  |  | LogP [2]: 0.73^[a]
Cc1cc(C(F)F)ccc1C(F)CN (racemic) [Compound 2-06] |  |  | LogP [2]: 0.69^[a]
NCC(F)c1ccc(C2CC2)cc1Cl (racemic) [Compound 2-07] |  |  | LogP [2]: 1.15^[a]
O=C(NC1CCCc2ccsc21)c1cc(Cl)nnc1Cl (racemic) [Compound 3-16] |  |  | LogP (method [a]): 2.60^[a]
CC(NC(=O)c1cc(Cl)nnc1Cl)c1cn(C)c2ccccc12 (racemic) [Compound 3-18] |  |  | LogP (method [a]): 2.71^[a]
Cc1ccc(C(F)CNC(=O)c2c(Cl)nnc(Cl)c2C)c(Cl)c1 (racemic) [Compound 3-23] |  |  | LogP (method [a]): 3.22^[a]
CC(=O)c1cc(C(=O)NCC(F)c2ccc(Br)cc2Cl)c(Oc2cccc(C(F)(F)F)c2)nn1 (racemic) [Compound I-605, 6-acetyl-N-[rac-2-(4-bromo-2-chloro-phenyl)-2-fluoro-ethyl]-3-[3-(trifluoromethyl)phenoxy]pyridazine-4-carboxamide] |  |  | chromatographic logP (method [a]): 4.49
Cc1cc(C(=O)NC2CCOc3c(C)cccc32)c(Oc2cccc(C(F)(F)F)c2)nn1 (racemic) [I-107] |  |  | LogP [3]: 3.65^[a]
O=C(NCC(F)c1ccc(Br)cc1Cl)c1cc(Cl)nnc1Oc1cccc(C2CC2)c1 (racemic) [I-362] |  |  | LogP (HPLC method [a]): 4.87^[a]
Cc1nnc(Oc2cccc(C(F)F)c2F)c(C(=O)NCC(F)c2ccc(Br)cc2Cl)c1C (racemic) [I-369] |  |  | LogP (HPLC method [a]): 3.65^[a]
O=C(NCC1CNc2ccccc21)c1cc(Cl)nnc1Oc1cccc(C(F)(F)F)c1 (racemic) [I-436] |  |  | LogP (method [a]): 2.42^[a]
O=C(NC1CCCc2sc(Cl)cc21)c1cc(Cl)nnc1Oc1cccc(C(F)(F)F)c1 (racemic) [I-639] |  |  | LogP (method [a]): 4.68^[a]
Cc1ccc(C(F)(F)CNC(=O)c2c(Oc3cccc(C(F)(F)F)c3)nnc(Cl)c2OCC2CC2(F)F)c(C)c1 (racemic) [I-683] |  |  | LogP (method [a]): 4.95^[a]
O=C(NCC(F)c1ccc(Cl)cc1Cl)c1c(Oc2cccc(C3CC3)c2F)nnc(Cl)c1I (racemic) [I-758] |  |  | LogP (method [a]): 4.73^[a]
Cc1ccc(C(F)(F)CNC(=O)c2cc([S+](C)[O-])nnc2Oc2cccc(C(F)(F)F)c2)c(C)c1 (racemic) [I-781] |  |  | LogP (method [a]): 3.65^[a]
O=C(NCC(F)c1ccc(Cl)cc1Cl)c1c(Oc2cccc(C3CC3)c2F)nnc(Cl)c1O (racemic) [I-782] |  |  | LogP (method [a]): 5.13^[a]
Cc1ccc(C(F)(F)CNC(=O)c2cc(C3CCOC3)nnc2Oc2cccc(C(F)(F)F)c2)c(C)c1 (racemic) [I-794] |  |  | LogP (method [a]): 3.78^[a]
Cc1ccc(C(F)CNC(=O)c2c(Oc3cccc(C4CC4)c3F)nnc(C)c2C)c(C)c1 (racemic) [I-836] |  |  | LogP [3]: 3.78^[a]
COC(=O)c1c(Oc2cccc(C(F)(F)F)c2)nnc(Cl)c1C1CC1 [Compound 1-001] |  | 3.94 | 
Cc1c(Cl)nnc(Oc2cccc(Cl)c2)c1C(=O)O [Compound 1-002, 6-chloro-3-(3-chlorophenoxy)-5-methyl-pyridazine-4-carboxylic acid] |  | 1.39 | 
CSc1cc(C(=O)O)c(Oc2cccc(C(F)(F)F)c2)nn1 [Compound 1-004, 6-methylsulfanyl-3-[3-(trifluoromethyl)phenoxy]pyridazine-4-carboxylic acid] |  | 2.25 | 
Cc1c(Cl)nnc(Oc2cccc(C3CC3)c2F)c1C(=O)O [Compound 1-005] | 1.84^[a] |  | 
COC(=O)c1c(Oc2cccc(C(F)F)c2F)nnc(C)c1C [Compound 1-006] |  | 2.64 | 

SMILES | LogP [1] | chromatographic logP [1] | other results
N#Cc1cc(C(=O)O)c(Oc2cccc(C(F)(F)F)c2)nn1 [Compound 1-007] | 1.74^[a] |  | 
Cc1nnc(Oc2cccc(C(F)(F)F)c2F)c(C(=O)O)c1C [Compound 1-009] | 1.40^[a] |  | 
CC(C)OC(=O)c1cc(Cl)nnc1Oc1cccc(F)c1F [Compound 1-011] | 3.65^[a] |  | 
O=C(O)c1cc(C2CC2)nnc1Oc1cccc(C(F)F)c1 [Compound 1-012] | 1.68^[a] |  | 
Cc1nnc(Oc2cccc(C(F)F)c2F)c(C(=O)O)c1C [Compound 1-013] | 0.96^[a] |  | 
C#Cc1cccc(Oc2nnc(Cl)cc2C(=O)O)c1 [Compound 1-017] | 1.50^[a] |  | 
Cc1nnc(Oc2cccc(Cl)c2)c(C(=O)O)c1C [Compound 1-018] | 0.80^[a] |  | 
Cc1cc(C(=O)O)c(Oc2cncc(C(F)(F)F)c2)nn1 [Compound 1-019] | 1.01^[a] |  | 
O=C(O)c1cc(-c2ccncc2Cl)nnc1Oc1cccc(C(F)F)c1F [Compound 1-020] | 1.86^[a] |  | 
O=C(O)c1cc(N2CCCC2)nnc1Oc1cccc(C(F)(F)F)c1 [Compound 1-021] | 1.08^[a] |  | 
O=C(O)c1cc(Cl)nnc1Oc1cccc(F)c1F [Compound 1-024] | 1.65^[a] |  | 
O=C(O)c1cc(Cl)nnc1Oc1cncc(C(F)(F)F)c1 [Compound 1-025] | 1.31^[a] |  | 
COCCc1c(Cl)nnc(Oc2cccc(C(F)(F)F)c2)c1C(=O)O [Compound 1-026, 6-chloro-5-(2-methoxyethyl)-3-[3-(trifluoromethyl)phenoxy]pyridazine-4-carboxylic acid] |  | 1.74 | 
O=C(O)c1cc(Cl)nnc1Oc1cccc(C(F)(F)F)n1 [Compound 1-031] |  |  | LogP [4]: 0.69^[b]
COC(=O)c1c(Oc2cccc(Cl)c2)nnc(Cl)c1C [Compound 1-033, methyl 6-chloro-3-(3-chlorophenoxy)-5-methyl-pyridazine-4-carboxylate] |  | 3.37 | 
CCOC(=O)c1cc(C)nnc1Oc1cncc(C(F)(F)F)c1 [Compound 1-036] |  | 2.37 | 
Cc1nnc(Oc2cccc(C3CC3)c2)c(C(=O)O)c1C [Compound 1-037] | 1.10^[a] |  | 
COC(=O)c1c(Oc2cccc(Cl)c2)nnc(C)c1C [Compound 1-042] |  | 2.71 | 
O=C(O)c1cc(C2CC2)nnc1Oc1cccc(C(F)(F)F)c1 [Compound 1-043] | 1.90^[a] |  | 
COC(=O)c1c(Oc2cccc(C(F)(F)F)c2)nnc(Cl)c1OC [Compound 1-046] |  | 3.52 | 
O=C(O)c1cc(Cl)nnc1Oc1cccc(Br)c1 [Compound 1-048] | 1.66^[a] |  | 
COC(=O)c1c(Oc2cccc(C(F)(F)F)c2)nnc(Cl)c1Cl [Compound 1-049] |  | 3.86 | 
CC(C)OC(=O)c1cc(-n2ccnc2)nnc1Oc1cccc(C(F)(F)F)c1 [Compound 1-050] | 2.55^[a] |  | 
O=C(O)c1cc(Cl)nnc1Oc1cncc(C2CC2)c1 [Compound 1-051] |  |  | LogP [4]: 0.59^[b]
O=C(O)c1cc(-c2ccncc2Cl)nnc1Oc1cccc(F)c1F [Compound 1-053] | 1.22^[a] |  | 

SMILES | LogP [1] | chromatographic logP [1] | other results
COC(=O)c1c(Oc2cccc(C(F)F)c2F)nnc(Cl)c1Cl [Compound 1-055] |  | 3.51 | 
CCOC(=O)c1c(Oc2cccc(C3CC3)c2)nnc(Cl)c1Cl [Compound 1-056] |  | 4.41 | 
O=C(O)c1cc(C(F)(F)F)nnc1Oc1cccc(C(F)(F)F)c1 [Compound 1-057] | 2.27^[a] |  | 
CCOC(=O)c1c(Oc2cccc(C(F)(F)F)c2)nnc(Cl)c1OCC [Compound 1-060] |  | 4.23 | 
COC(=O)c1c(Oc2cccc(C(F)(F)F)c2F)nnc(Cl)c1Cl [Compound 1-064] |  | 3.96 | 
C=Cc1c(Cl)nnc(Oc2cccc(C(F)(F)F)c2)c1C(=O)OC [Compound 1-069, methyl 6-chloro-3-[3-(trifluoromethyl)phenoxy]-5-vinyl-pyridazine-4-carboxylate] |  | 3.94 | 
COC(=O)c1cc(Cl)nnc1Oc1cccc(C(F)(F)F)n1 [Compound 1-071] |  | 2.69 | 
CC(C)OC(=O)c1cc(-c2ccncc2Cl)nnc1Oc1cccc(F)c1F [Compound 1-074] | 3.65^[a] |  | 
CCOC(=O)c1cc(Cl)nnc1Oc1cncc(C2CC2)c1 [Compound 1-076] |  |  | chromatographic logP [4]: 2.6
Cc1nnc(Oc2cccc(C3CC3)c2F)c(C(=O)O)c1C [Compound 1-077] | 1.31^[a] |  | 
COC(=O)c1cc(Cl)nnc1Oc1cccc(C(F)(F)F)c1 [Compound 1-079] |  | 3.27 | 
CCOC(=O)c1cc(SC)nnc1Oc1cccc(C(F)(F)F)c1 [Compound 1-083] |  | 3.96 | 
COC(=O)c1c(Oc2cccc(C(F)(F)F)c2)nnc(Cl)c1-n1cccn1 [Compound 1-084] | 3.53^[a] |  | 
COC(=O)c1c(Oc2cccc(C(F)(F)F)c2)nnc(Cl)c1-c1ccccc1 [Compound 1-085] |  | 4.25 | 
COC(=O)c1cc(Cl)nnc1Oc1cncc(Br)c1 [Compound 1-086] |  | 2.33 | 
CCOC(=O)c1cc(Cl)nnc1Oc1cncc(C(F)(F)F)c1 [Compound 1-088] |  | 3 | 
CC(=O)c1cccc(Oc2nnc(Cl)cc2C(=O)O)c1 [Compound 1-093] | 1.01^[a] |  | 
Cc1cc(C(=O)O)c(Oc2cccc(C(F)F)c2)nn1 [Compound 1-098] | 1.36^[a] |  | 
COC(=O)c1cc(Cl)nnc1Oc1cccc(C2CC2)c1F [Compound 1-099] |  | 3.45 | 
COC(=O)c1cc(C)nnc1Oc1cccc(C2CC2)c1F [Compound 1-100] |  | 2.89 | 
COC(=O)c1c(Oc2cccc(C3CC3)c2F)nnc(Cl)c1C [Compound 1-101] |  | 3.7 | 
CC(C)OC(=O)c1cc(Cl)nnc1Oc1cncc(C(F)F)c1 [Compound 1-102] | 2.82^[a] |  | 
CCOC(=O)c1cc(C)nnc1Oc1cccc(C2CC2)c1F [Compound 1-112] |  | 3.29 | 

From patent US20230165252A1, “ACTIVE COMPOUND COMBINATIONS” (Bayer Aktiengesellschaft, priority 2020, published 2023)
